According to patent US20110262352A1, “ARYL PIPERAZINE AND THEIR USE AS ALPHA2C ANTAGONISTS” (priority 2008, published 2011):
Read-outs that look alike come from different tables or passages of the source.

Assays:
[1] = biological target: T1, human alpha2A receptors (Homo sapiens, UniProt P08913); assay: Determination of alpha2A antagonistic activity in vitro (intracellular calcium, FLIPR Calcium 3); type: cell-based; settings: CHO cells stably transfected with human alpha2A receptor and Gα16; stimulated with 100 nM adrenaline or 200 nM noradrenaline; 37° C.
T1 construct: host or cells: Chinese hamster ovary (CHO) cells, cotransfected with pCEP-Gα16
T1 sequence (P08913 1-465): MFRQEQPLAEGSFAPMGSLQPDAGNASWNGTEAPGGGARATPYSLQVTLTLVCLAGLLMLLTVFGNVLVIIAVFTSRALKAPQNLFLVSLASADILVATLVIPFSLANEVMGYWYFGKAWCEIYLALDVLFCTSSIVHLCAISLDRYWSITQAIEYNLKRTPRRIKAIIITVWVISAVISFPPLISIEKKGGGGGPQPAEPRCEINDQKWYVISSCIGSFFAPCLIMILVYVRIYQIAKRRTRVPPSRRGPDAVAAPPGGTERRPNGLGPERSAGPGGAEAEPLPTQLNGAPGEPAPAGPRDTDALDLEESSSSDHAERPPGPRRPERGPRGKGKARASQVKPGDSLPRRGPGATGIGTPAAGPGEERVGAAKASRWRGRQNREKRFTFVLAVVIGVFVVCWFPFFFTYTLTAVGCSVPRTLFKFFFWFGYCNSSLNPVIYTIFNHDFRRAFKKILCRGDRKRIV
Description: (§1) Experiment 1: Determination of alpha2A and alpha2C Antagonistic Activity In Vitro
(§2) Chinese hamster ovary (CHO) cells stably transfected with human alpha2A or alpha2C receptors (University of Turku, Finland) were cotransfected with the expression vector pCEP-Gα16 (Molecular Devices, CA, USA) were used in this experiment. The cells were maintained at 37° C. in a 5% CO2/95% air atmosphere. The cells were cultured in HAM F-12 medium supplemented with 10% FCS, 25 mM HEPES, 100 IU/ml penicillin, 100 μg/ml streptomycin, 500 μg/ml geneticin and 240 μg/ml hygromycin B. The cells were subcultured twice weekly with 0.25% trypsin and 1 mM EDTA. The subculture ratio was 1:5-1:20. The growth medium was changed every 2 or 3 days. All cell culture reagents were from Gibco. The day before the experiment the cells were plated into black-walled, clear bottom 96-well plates at a density of 30,000-45,000 cells/well.
(§3) The growth medium was removed and the cells were incubated with the test compounds and the FLIPR Calcium 3 Assay reagent (Molecular Devices, CA, USA) for 1 h at 37° C. in dark. The test compounds (concentrations in cells 100 pM-10 μM) were dissolved in Probenecid-Ringer consisting of 150 mM NaCl, 3 mM KCl, 1.2 mM MgCl2, 1 mM CaCl2, 5 mM glucose, 20 mM HEPES and 2.5 mM probenecid (pH 7.4 adjusted with 1.0 M NaOH). The osmolarity was adjusted to 322 milliosmoles with Osmostat® OM-6020 osmometer (DIC Kyoto Daiichi Kagagu Co. Ltd, Japan). […] All experiments were performed at 37° C. The test compounds dissolved in Probenecid-Ringer were applied by FLEX station at 17 s time point. […] In order to determine antagonism, the cells were stimulated either with 100 nM adrenaline or 200 nM noradrenaline and the test compounds were added to the cells at least 5 min before the experiment. Typically, there were four replicates at each concentration and seven different dose levels. For example, if the number of plates from which results were obtained was three, 84 (4*7*3) wells were thus measured to construct dose-response relationship. The samples were excited at 485 nm and emission was detected at 525 nm with a 515 nm cut-off filter. Reading time was 60 s per well and the photomultiplier sensitivity value was set to 15. The minimum fluorescence value subtracted from the maximum value for each well was used in the calculations. SOFTmax PRO version 3.2 software was used for analyzing the results. Fitting of the antagonist dose-response results was performed with the free Hill equation and the IC50 values were fitted with Michaelis-Menten equation in Sigma Plot 8.0.

[2] = biological target: T2, human alpha2C receptors (Homo sapiens, UniProt P18825); assay: Determination of alpha2C antagonistic activity in vitro (intracellular calcium, FLIPR Calcium 3); type: cell-based
T2 construct: host or cells: Chinese hamster ovary (CHO) cells, cotransfected with pCEP-Gα16
T2 sequence (P18825 1-462): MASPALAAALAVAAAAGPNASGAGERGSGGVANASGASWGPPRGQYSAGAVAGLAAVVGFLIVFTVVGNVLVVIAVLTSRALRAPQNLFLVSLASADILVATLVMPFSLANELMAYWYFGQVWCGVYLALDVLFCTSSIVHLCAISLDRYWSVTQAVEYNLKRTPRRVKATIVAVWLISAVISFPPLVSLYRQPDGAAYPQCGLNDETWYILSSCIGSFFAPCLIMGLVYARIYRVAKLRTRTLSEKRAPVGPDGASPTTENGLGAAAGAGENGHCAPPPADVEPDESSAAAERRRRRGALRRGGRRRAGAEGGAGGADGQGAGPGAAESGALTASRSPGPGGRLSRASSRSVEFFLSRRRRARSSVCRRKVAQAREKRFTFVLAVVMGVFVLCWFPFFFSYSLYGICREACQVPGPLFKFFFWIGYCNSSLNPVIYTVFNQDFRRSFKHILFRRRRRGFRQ
Description: as §1, §2, §3

[3] = CHO cells stably transfected with human alpha2C receptor and Gα16, stimulated with 100 nM adrenaline or 200 nM noradrenaline, 37° C., read-out: IC50/nM Alpha2C

Row | Compound | IC50 [1] [nM] | IC50 [2, 3] [nM] | IC50 [2] [nM]
1 | COCc1ccccc1N1CCN(C[C@H]2COc3ccccc3O2)CC1 [Example 17, (S)-1-((2,3-Dihydrobenzo[b][1,4]dioxin-2-yl)methy)-4-(2-(methoxymethyl)phenyl)piperazine] | 2180 | 8.2 | 
2 | COCc1ccccc1N1CCN(C[C@@H]2COc3ccccc3O2)CC1 [Example 18, (R)-1-((2,3-Dihydrobenzo[b][1,4]dioxin-2-yl)methyl)-4-(2-(methoxymethyl)phenyl)piperazine] | 41100 | 134 | 
3 | OCc1c(F)cccc1N1CCN(CC2COc3ccccc3O2)CC1 (stereo not drawn) [Example 23, (2-(4-((2,3-Dihydrobenzo[b][1,4]dioxin-2-yl)methyl)piperazin-1-yl)-6-fluorophenyl)methanol] | 10700 | 30.6 | 
4 | c1coc(-c2ccccc2N2CCN(C[C@H]3COc4ccccc4O3)CC2)c1 [Example 29, (S)-1-((2,3-Dihydrobenzo[b][1,4]dioxin-2-yl)methyl)-4-(2-(furan-2-yl)phenyl)piperazine] | 12700 | 18 | 
5 | Cc1ccccc1N1CCN(C[C@H]2COc3ccccc3O2)CC1 [Example 31, (S)-1-((2,3-Dihydrobenzo[b][1,4]dioxin-2-yl)methyl)-4-o-tolylpiperazine] | 16900 |  | 17.6
6 | COC(=O)c1ccccc1N1CCCN(CC2COc3ccccc3O2)CC1 (stereo not drawn) [Example 36, Methyl 2-(4-((2,3-dihydrobenzo[b][1,4]dioxin-2-yl)methyl)-1,4-diazepan-1-yl)benzoate] | 3900 | 13.7 | 
